Assays:
TGFBR2 = TGFBR2 (Homo sapiens, UniProt P37173); details: cited from earlier work
SH-SY5Y cells [1] = test: AK (adenylate kinase) release ToxiLight cytotoxicity assay; details: PKIS2 primary screening; note: reference of the scale not given here
MTOR = MTOR (Homo sapiens, UniProt P42345); details: cited from earlier work
PRKD3 = biological target: T1, PRKD3 (Homo sapiens, UniProt O94806); details: cited from earlier work
T1 sequence (O94806 1-890): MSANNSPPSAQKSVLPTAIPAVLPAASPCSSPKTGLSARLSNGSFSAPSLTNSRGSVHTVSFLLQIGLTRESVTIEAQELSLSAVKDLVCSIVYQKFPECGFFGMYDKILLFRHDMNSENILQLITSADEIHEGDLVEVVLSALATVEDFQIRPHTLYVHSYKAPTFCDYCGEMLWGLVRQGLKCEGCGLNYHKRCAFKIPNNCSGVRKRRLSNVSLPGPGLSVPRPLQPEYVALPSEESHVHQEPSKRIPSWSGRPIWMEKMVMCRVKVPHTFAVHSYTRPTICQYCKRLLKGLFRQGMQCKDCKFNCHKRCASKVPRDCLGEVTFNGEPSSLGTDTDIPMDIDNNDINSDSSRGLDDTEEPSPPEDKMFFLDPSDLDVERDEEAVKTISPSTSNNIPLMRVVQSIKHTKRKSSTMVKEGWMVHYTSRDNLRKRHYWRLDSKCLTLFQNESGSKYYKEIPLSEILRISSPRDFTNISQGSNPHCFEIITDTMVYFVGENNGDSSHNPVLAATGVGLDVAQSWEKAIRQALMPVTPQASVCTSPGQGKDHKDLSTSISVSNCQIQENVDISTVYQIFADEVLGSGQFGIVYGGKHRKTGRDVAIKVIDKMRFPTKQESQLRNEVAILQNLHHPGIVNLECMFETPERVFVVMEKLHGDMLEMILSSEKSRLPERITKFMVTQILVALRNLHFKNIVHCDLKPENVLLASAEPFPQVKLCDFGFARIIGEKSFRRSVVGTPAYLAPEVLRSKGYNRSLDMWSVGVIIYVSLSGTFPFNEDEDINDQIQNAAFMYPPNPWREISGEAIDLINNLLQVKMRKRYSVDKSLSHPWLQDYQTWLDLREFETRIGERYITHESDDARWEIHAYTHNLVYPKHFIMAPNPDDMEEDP

CIT = CIT (Homo sapiens, UniProt O14578); details: cited from earlier work
PRKD2 = biological target: T2, PRKD2 (Homo sapiens, UniProt Q9BZL6); details: cited from earlier work
T2 sequence (Q9BZL6 1-878): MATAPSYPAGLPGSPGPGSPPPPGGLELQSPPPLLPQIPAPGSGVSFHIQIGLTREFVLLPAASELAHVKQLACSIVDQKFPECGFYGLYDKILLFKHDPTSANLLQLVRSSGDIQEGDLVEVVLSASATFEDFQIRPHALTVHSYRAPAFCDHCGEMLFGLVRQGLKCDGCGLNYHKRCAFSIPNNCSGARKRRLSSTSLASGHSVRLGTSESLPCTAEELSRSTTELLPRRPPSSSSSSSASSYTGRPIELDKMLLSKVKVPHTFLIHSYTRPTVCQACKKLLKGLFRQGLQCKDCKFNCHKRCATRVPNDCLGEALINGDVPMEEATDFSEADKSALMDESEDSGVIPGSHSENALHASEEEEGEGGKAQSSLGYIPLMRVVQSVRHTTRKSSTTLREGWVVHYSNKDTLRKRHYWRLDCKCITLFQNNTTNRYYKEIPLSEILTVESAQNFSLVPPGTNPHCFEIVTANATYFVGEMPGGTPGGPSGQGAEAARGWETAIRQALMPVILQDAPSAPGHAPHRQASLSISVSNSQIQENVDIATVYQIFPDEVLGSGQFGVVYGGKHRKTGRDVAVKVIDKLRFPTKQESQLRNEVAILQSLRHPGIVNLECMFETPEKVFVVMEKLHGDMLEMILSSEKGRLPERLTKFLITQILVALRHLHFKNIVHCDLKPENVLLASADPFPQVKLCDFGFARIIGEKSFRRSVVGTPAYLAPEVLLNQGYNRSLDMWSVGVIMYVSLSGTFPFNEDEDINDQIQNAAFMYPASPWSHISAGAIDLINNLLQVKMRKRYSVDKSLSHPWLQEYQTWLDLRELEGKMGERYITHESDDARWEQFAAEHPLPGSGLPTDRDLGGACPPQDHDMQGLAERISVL

CSNK1E = CSNK1E (Homo sapiens, UniProt P49674); details: cited from earlier work
Chain of CSNK1E (P49674 whole entry): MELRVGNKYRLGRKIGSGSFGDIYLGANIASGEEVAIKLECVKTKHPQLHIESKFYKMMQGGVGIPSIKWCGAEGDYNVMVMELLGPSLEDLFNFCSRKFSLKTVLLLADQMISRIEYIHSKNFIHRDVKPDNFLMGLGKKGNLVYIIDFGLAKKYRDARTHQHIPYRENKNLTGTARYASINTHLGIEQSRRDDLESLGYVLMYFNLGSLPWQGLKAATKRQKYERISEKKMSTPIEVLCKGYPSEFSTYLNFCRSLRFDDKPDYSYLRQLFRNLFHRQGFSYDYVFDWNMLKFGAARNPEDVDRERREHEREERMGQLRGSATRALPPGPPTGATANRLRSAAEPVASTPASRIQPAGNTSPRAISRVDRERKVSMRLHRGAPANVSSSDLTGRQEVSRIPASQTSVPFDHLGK

JAK1(JH2) = biological target: T3, JAK1(JH2) (Homo sapiens, UniProt P23458); details: cited from earlier work
T3 construct: JAK1(JH2)
T3 sequence (P23458 583-855 limits assumed): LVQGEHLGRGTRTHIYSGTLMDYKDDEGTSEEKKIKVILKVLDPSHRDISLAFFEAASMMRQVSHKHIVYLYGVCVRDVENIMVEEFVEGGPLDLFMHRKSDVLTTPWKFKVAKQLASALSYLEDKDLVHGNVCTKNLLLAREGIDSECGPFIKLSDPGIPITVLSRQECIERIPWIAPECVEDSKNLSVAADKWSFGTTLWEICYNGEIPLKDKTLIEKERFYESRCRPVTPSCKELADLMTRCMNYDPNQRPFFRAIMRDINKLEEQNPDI

endogenous TFE3 = test: TFE3 nuclear translocation, immunocytochemistry high-content imaging; assay type: cell-based; details: for TFE3 %: PKIS2 primary screening; for nTFE3 %: primary screen, 1 µM, 24 h
SH-SY5Y cells [2] = test: Nuclear count from microscopy images (cellular growth and toxicity); details: PKIS2 primary screening; note: reference of the scale not given here
PIKFYVE = PIKFYVE (Homo sapiens, UniProt Q9Y2I7); details: cited from earlier work
CDC42BPG/DMPK2 = CDC42BPG/DMPK2 (Homo sapiens, UniProt Q6DT37); details: cited from earlier work
Chain of CDC42BPG/DMPK2 (Q6DT37 whole entry): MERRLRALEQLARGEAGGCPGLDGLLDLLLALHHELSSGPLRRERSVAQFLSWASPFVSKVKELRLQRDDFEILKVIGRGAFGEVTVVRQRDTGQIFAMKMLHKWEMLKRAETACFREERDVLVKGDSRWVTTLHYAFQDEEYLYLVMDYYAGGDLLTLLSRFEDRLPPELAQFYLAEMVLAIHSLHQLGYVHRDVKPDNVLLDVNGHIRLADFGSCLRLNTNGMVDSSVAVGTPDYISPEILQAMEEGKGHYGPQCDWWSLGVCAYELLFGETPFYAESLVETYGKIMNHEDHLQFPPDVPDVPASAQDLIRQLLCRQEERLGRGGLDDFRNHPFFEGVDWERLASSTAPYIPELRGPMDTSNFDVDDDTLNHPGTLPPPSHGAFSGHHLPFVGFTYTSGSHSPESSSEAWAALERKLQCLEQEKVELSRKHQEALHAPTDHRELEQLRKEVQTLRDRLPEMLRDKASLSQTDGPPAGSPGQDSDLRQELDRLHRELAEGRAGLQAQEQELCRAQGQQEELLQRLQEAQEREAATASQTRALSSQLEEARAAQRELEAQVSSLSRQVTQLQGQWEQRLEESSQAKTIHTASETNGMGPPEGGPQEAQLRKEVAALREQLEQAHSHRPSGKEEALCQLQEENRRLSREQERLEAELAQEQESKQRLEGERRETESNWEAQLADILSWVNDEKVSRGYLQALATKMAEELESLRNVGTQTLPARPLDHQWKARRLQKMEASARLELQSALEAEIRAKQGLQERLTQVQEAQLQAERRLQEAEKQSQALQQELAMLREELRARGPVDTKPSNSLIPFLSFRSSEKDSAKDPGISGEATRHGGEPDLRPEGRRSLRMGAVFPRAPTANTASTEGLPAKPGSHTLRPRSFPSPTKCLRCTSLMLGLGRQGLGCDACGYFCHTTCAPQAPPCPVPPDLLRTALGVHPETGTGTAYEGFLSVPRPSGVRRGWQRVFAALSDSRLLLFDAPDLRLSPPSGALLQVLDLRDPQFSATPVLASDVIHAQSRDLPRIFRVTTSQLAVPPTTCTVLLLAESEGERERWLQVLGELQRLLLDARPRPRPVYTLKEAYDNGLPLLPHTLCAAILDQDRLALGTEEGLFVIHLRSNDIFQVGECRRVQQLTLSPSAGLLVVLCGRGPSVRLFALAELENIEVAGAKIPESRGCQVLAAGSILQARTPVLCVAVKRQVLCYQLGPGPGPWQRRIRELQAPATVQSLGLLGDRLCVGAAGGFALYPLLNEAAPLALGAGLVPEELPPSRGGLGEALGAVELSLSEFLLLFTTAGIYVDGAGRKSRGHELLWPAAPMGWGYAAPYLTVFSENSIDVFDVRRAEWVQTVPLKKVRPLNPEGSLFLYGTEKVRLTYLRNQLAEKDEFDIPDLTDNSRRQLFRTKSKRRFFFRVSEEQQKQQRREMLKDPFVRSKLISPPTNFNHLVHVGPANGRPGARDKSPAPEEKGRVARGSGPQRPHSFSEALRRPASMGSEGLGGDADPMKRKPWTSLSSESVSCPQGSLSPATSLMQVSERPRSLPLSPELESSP

CDC42BPB/MRCKB = CDC42BPB/MRCKB (Homo sapiens, UniProt Q9Y5S2); details: cited from earlier work
Chain of CDC42BPB/MRCKB (Q9Y5S2 whole entry): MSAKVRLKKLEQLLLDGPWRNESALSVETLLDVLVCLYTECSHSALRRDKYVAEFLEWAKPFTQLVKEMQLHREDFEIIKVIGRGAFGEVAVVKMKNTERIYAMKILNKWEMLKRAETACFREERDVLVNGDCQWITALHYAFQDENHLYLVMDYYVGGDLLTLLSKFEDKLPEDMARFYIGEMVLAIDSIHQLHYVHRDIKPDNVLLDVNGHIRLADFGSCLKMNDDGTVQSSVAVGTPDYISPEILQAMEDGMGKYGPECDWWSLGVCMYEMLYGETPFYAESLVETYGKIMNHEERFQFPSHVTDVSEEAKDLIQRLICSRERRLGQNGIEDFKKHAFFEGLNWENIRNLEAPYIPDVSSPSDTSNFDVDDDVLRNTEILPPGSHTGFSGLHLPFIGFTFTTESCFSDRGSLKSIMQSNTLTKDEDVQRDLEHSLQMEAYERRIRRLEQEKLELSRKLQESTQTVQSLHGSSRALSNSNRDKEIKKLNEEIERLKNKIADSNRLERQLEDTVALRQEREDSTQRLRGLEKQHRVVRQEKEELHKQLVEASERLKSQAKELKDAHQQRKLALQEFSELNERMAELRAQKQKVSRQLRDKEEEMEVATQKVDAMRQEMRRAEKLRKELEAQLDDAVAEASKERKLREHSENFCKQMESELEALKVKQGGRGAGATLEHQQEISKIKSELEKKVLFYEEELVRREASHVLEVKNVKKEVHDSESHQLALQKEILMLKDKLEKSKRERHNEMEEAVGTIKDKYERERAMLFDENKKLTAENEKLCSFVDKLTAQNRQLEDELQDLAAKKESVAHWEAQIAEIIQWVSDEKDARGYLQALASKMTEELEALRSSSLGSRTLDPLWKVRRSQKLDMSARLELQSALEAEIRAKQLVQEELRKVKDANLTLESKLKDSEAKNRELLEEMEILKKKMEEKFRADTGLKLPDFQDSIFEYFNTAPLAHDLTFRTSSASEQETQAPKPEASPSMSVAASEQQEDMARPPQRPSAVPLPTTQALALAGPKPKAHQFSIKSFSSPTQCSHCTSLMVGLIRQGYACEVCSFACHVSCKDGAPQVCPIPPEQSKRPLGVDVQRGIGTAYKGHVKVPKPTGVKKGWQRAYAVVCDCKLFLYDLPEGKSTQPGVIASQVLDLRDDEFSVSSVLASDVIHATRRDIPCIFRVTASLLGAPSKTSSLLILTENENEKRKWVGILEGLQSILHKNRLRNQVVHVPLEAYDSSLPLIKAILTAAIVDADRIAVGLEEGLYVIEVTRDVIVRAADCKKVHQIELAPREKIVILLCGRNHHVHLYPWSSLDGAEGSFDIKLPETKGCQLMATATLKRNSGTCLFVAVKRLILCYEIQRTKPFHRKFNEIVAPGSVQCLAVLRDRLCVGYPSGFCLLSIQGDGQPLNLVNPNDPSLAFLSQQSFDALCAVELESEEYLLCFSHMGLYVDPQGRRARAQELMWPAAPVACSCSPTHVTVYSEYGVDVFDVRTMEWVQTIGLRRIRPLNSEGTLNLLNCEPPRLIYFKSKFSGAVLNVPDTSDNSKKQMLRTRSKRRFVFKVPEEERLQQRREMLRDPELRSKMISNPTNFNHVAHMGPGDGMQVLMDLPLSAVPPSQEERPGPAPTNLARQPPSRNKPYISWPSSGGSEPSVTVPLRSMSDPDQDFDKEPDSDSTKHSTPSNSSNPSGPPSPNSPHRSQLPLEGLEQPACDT

SH-SY5Y cells [3] = details: PKIS2 primary screening; for DQ Intensity: DQ Red BSA intensity; for DQ Spot: DQ Red BSA spot count
Description: The PKIS2 Library was supplied by The Structural Genomics Consortium at the University of North Carolina at Chapel Hill.

BMPR1B = BMPR1B (Homo sapiens, UniProt O00238); details: cited from earlier work
Chain of BMPR1B (O00238 14-502): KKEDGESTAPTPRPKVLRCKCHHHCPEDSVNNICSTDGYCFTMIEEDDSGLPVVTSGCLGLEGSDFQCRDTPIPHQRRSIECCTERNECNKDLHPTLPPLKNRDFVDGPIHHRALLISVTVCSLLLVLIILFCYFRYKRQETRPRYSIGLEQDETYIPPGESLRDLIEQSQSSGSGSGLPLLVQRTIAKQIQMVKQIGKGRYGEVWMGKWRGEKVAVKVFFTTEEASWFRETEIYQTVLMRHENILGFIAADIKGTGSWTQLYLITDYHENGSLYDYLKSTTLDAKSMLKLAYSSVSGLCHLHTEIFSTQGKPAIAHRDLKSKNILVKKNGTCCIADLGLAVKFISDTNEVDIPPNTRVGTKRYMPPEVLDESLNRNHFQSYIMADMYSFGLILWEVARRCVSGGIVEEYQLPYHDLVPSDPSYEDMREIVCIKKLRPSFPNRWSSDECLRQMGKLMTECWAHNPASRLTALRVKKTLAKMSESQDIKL

endogenous TFEB = test: TFEB nuclear translocation, immunocytochemistry high-content imaging; assay type: cell-based; details: for TFEB %: PKIS2 primary screening
Throughout, for DQ Intensity: reference of the scale not given here.
Throughout, for DQ Spot: reference of the scale not given here.

Chain of TGFBR2 (P37173 23-567): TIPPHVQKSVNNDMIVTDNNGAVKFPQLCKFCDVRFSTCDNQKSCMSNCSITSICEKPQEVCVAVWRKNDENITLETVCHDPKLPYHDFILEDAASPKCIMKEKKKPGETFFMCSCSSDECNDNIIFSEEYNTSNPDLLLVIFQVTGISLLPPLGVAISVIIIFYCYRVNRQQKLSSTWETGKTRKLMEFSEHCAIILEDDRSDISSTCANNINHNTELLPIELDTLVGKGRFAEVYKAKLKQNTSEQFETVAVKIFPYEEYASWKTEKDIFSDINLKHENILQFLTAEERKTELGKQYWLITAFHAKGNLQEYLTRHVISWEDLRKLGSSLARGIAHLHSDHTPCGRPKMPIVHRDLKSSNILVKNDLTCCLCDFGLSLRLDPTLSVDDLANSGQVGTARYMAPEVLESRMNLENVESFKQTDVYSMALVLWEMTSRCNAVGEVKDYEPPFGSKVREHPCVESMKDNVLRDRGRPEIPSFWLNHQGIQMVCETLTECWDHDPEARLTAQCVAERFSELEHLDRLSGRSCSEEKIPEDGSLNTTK

SMILES | KINOMEscan binding TGFBR2 (TGFBR2) | AK (SH-SY5Y cells [1]) | KINOMEscan binding MTOR (MTOR) | KINOMEscan binding PRKD3 (PRKD3) | KINOMEscan binding CIT (CIT) | KINOMEscan binding PRKD2 (PRKD2) | KINOMEscan binding CSNK1E (CSNK1E) | KINOMEscan binding JAK1(JH2) (JAK1(JH2)) | TFE3 % (endogenous TFE3) | nTFE3 % (endogenous TFE3; SH-SY5Y) | Nuclear Count (SH-SY5Y cells [2]) | KINOMEscan binding PIKFYVE (PIKFYVE) | KINOMEscan binding CDC42BPG/DMPK2 (CDC42BPG/DMPK2) | KINOMEscan binding CDC42BPB/MRCKB (CDC42BPB/MRCKB) | DQ Intensity (SH-SY5Y cells [3]) | DQ Spot (SH-SY5Y cells [3]) | KINOMEscan binding BMPR1B (BMPR1B) | TFEB % (endogenous TFEB) | TFE3 translocation (in words) (endogenous TFE3; SH-SY5Y, 24 h treatment) | TFEB translocation (in words) (endogenous TFEB; SH-SY5Y, 24 h treatment)
Cc1csc(-c2nc(Nc3ccncc3)c3ccccc3n2)n1 [GW869640] | 88% | 59.35 | 74% | 71% | 61% | 78% | 41% | 74% | 13.20% | 13% | 81.77 | 78% | 35% | 44% | 86.86 | 102.29 | 42% | 2.75% |  | 
Cc1cccc(-c2nc(C)cc(Nc3ccncc3)n2)n1 [GSK257997] | 4% | 66.29 | 13% | 85% | 23% | 80% | 42% | 0% | 9.74% | 9.7% | 128.02 | 27% | 89% | 81% | 78.64 | 86.70 | 0% | 2.98% | did not show TFEB and TFE3 activation | did not show TFEB and TFE3 activation
Cc1ccc(-c2nc(Nc3ccncc3)c3ccccc3n2)s1 [GSK189015] | 21% | 70.77 | 10% | 22% | 42% | 14% | 22% | 38% | 15.06% | 15% | 75.74 | 63% | 13% | 21% | 116.90 | 105.30 | 0% | 4.14% |  | 
Cc1cccc(-c2nc(Nc3ccncc3)c3ccccc3n2)n1 [GW855857] | 95.7% | 89.05 | 50% | 69% | 91.1% | 99% | 77% | 74% | 15.51% | 15.5% | 124.29 | 57% | 76% | 63% | 79.80 | 95.73 | 29% | 6.50% |  | 
